Here are results for twelve compounds from ChEMBL document CHEMBL4052699, “Synthesis, in vitro and in vivo giardicidal activity of nitrothiazole-NSAID chimeras displaying broad antiprotozoal spectrum” (Bioorg Med Chem Lett, 2017).

Series [1] deals with Giardia intestinalis. Briefly: Antiprotozoal activity against Giardia intestinalis IMSS:0696:1 (genotype A) trophozoites incubated for 48 hrs. The following applies: Giardia duodenalis. In kind it is functional.
Series [2] concerns Trichomonas vaginalis. Briefly: Antiprotozoal activity against Trichomonas vaginalis GT3 trophozoites incubated for 48 hrs. Conditions: GT3, 48 h. It is filed as functional.
The test system of series [3] is Leishmania amazonensis. The experiment in a line: Antiprotozoal activity against Leishmania amazonensis IFLA/BR/67/PH-8 incubated for 72 hrs by Neubauer chamber based cell counting method. In kind it is functional. Conditions: IFLA/BR/67/PH-8, 72 h.
The test system of series [4] is Leishmania mexicana. The experiment in a line: Antiprotozoal activity against Leishmania mexicana MHOM/MX/ISETGS incubated for 72 hrs by Neubauer chamber based cell counting method. In kind it is functional.
For series [5], the system named is Trypanosoma cruzi. The experiment in a line: Antiprotozoal activity against Trypanosoma cruzi MHOM/MX/1994/Ninoa incubated for 72 hrs by Neubauer chamber based cell counting method. In kind it is functional.
A short description of series [6]: Cytotoxicity against African green monkey Vero cells incubated for 24 to 48 hrs by SRB assay. In kind it is cell-based. Conditions: chlorocebus sabaeus. On the technique in general: In SRB staining, fixed cells bind dye roughly in proportion to their protein.
Series [7] is described as follows: Selectivity index, ratio of CC50 for cytotoxicity against African green monkey Vero cells to IC50 for Giardia intestinalis Giardia intestinalis IMSS:0696:1 (genotype A).
Series [8] can be described thus: Selectivity index, ratio of CC50 for cytotoxicity against African green monkey Vero cells to IC50 for Trichomonas vaginalis GT3.
Series [9] in a line: Selectivity index, ratio of CC50 for cytotoxicity against African green monkey Vero cells to IC50 for Leishmania mexicana MHOM/MX/ISETGS. It is filed as toxicity, cell-based. The following applies: read-out: Ratio CC50/IC50.
In series [10] the test system is Trypanosoma cruzi. Briefly: Potency index, ratio of IC50 for benznidazole to IC50 for test compound for antiprotozoal activity against Trypanosoma cruzi MHOM/MX/1994/Ninoa incubated for 72 hrs by Neubauer chamber based cell counting method. In kind it is functional.
For series [11], the system named is Trichomonas vaginalis. The experiment in a line: Potency index, ratio of IC50 for nitazoxanide to IC50 for test compound for antiprotozoal activity against Trichomonas vaginalis GT3 trophozoites incubated for 48 hrs. In kind it is functional.
The subject of series [12] is Trichomonas vaginalis. Briefly: Potency index, ratio of IC50 for metronidazole to IC50 for test compound for antiprotozoal activity against Trichomonas vaginalis GT3 trophozoites incubated for 48 hrs. It is filed as functional.
Series [13] deals with Giardia intestinalis. Briefly: Antigiardial activity against Giardia intestinalis WB trophozoites infected in CD1 mouse dosed intragastrically 6 days after infection and measured 48 hrs post dose. In kind it is functional. The following applies: Giardia duodenalis, po.
For series [14], the system named is Giardia intestinalis. Briefly: Potency index, ratio of ED50 for metronidazole to ED50 for test compound for antigiardial activity against Giardia intestinalis WB trophozoites infected in CD1 mouse dosed intragastrically 6 days after infection and measured 48 hrs post dose. It is filed as functional, Giardia duodenalis.
The test system of series [15] is Giardia intestinalis. Briefly: Potency index, ratio of ED50 for nitazoxanide to ED50 for test compound for antigiardial activity against Giardia intestinalis WB trophozoites infected in CD1 mouse dosed intragastrically 6 days after infection and measured 48 hrs post dose. It is filed as functional, Giardia duodenalis.
The subject of series [16] is Giardia intestinalis. Briefly: Potency index, ratio of IC50 for metronidazole to IC50 for test compound for antiprotozoal activity against Giardia intestinalis IMSS:0696:1 (genotype A) trophozoites incubated for 48 hrs. In kind it is functional, Giardia duodenalis.
Series [17] concerns Giardia intestinalis. The experiment in a line: Potency index, ratio of IC50 for nitazoxanide to IC50 for test compound for antiprotozoal activity against Giardia intestinalis IMSS:0696:1 (genotype A) trophozoites incubated for 48 hrs. It is filed as functional, Giardia duodenalis.
Series [18] concerns Leishmania amazonensis. The experiment in a line: Potency index, ratio of IC50 for pentamidine to IC50 for test compound for antiprotozoal activity against Leishmania amazonensis IFLA/BR/67/PH-8 incubated for 72 hrs by Neubauer chamber based cell counting method. In kind it is functional.
In series [19] the test system is Leishmania amazonensis. Briefly: Potency index, ratio of IC50 for nitazoxanide to IC50 for test compound for antiprotozoal activity against Leishmania amazonensis IFLA/BR/67/PH-8 incubated for 72 hrs by Neubauer chamber based cell counting method. In kind it is functional.

As usually defined, the IC50 is the concentration at which inhibition is half-maximal. Usually CC50 stands for the concentration that lowers cell viability or growth by half. The ED50 is the dose that gives a 50% effect, or the effect in half of the subjects.

Where “and” joins values, the source holds several entries; their conditions need not be identical. Equal values may be shown once. Bounds are passed on as bounds.

Turning to `O=[N+]([O-])c1cncs1`, the IC50 was 29.6 µM in series [1]; 52.9 µM in series [2]; greater than 50 µM in series [3]; greater than 50 µM in [4]; greater than 50 µM in series [5]. The half-maximal cytotoxic concentration (CC50) in series [6] came out at 441 µM.
As to `O=C(Cn1ccnc1[N+](=O)[O-])NCc1ccccc1` [BENZNIDAZOLE], the IC50 in series [3] and in series [4] was greater than 50 µM each time.
In series [5], `N=C(N)c1ccc(OCCCCCOc2ccc(C(=N)N)cc2)cc1` [PENTAMIDINE] had an IC50 greater than 50 µM. For the same compound, the “Ratio CC50/IC50” value in [7] turned out to be 11; in series [8], 12.3. Also, the selectivity ratio in series [9] stood at 3.2.
Regarding `Cc1ncc([N+](=O)[O-])n1CCO` [METRONIDAZOLE], the IC50 in series [3], in series [4] and in [5] was greater than 50 µM each time. The “Ratio CC50/IC50” value is recorded as 72 in [7] and 1134 in series [8]. Moreover, the selectivity ratio in series [9] is less than 7.
With `CC(C)Cc1ccc(C(C)C(=O)Nc2ncc([N+](=O)[O-])s2)cc1` (racemic), the IC50 turned out to be 0.227 µM in series [1]; 0.045 µM in series [2]; 6.42 µM in series [3]; 17.1 µM in [4]; 15 µM in series [5]. The “Ratio IC50” value in series [10] was 2; in series [11], 1.7; in series [12] it was 7. This compound registered a CC50 in series [6] of 201 µM. The results for the “Ratio CC50/IC50” value in [7] and in series [8] were 887 and 4475, respectively. The selectivity ratio in [9] is 31. The ED50 in series [13] was 0.00399 mg/kg and 0.012 µmol/kg. The “Ratio ED50” value in series [14] and in series [15] was 50 - 300 each time.
As for `CCCCCCCCCCCCCCCCOP(=O)([O-])OCC[N+](C)(C)C` [MILTEFOSINE], the IC50 in [1] amounted to 20 µM; in [2] it was 20 µM; in [3] it was 1.35 µM; in [4], 2.03 µM; in series [5], 25.2 µM. The compound also displayed a CC50 in series [6] of 0.12 µM.
On to `COc1ccc2c(c1)c(CC(=O)Nc1ncc([N+](=O)[O-])s1)c(C)n2C(=O)c1ccc(Cl)cc1`, for which the IC50 was 0.145 µM in series [1]; 0.134 µM in series [2]; 0.88 µM in series [3]; 6.77 µM in series [4]; greater than 50 µM in [5]. Further, the CC50 in series [6] came out at 13 µM. For the same compound, the “Ratio IC50” value in [16] was determined as 38; in series [17] it was 8; in series [18], 16; in [19] it was 8. Also, the “Ratio CC50/IC50” value is given as 89 in series [7] and 96 in series [8]. The selectivity ratio in series [9] worked out at 15. Further, the ED50 in series [13] is 0.00171 mg/kg and 0.00353 µmol/kg. The “Ratio ED50” value in series [14] is reported as 321; in [15] it was 1015.
`COc1ccc2cc([C@H](C)C(=O)Nc3ncc([N+](=O)[O-])s3)ccc2c1`: the IC50 in series [1] stood at 0.221 µM; in series [2], 0.162 µM; in [3], 3.64 µM; in [4] it was 25.5 µM; in series [5], 12.9 µM. Besides, in series [10], the “Ratio IC50” value came to 2. Moreover, the 50% cytotoxic concentration (CC50) in series [6] came out at 180 µM. The results for the “Ratio CC50/IC50” value in series [7] and in series [8] were 815 and 1112, respectively. Moreover, the selectivity ratio in series [9] is 49. The ED50 in series [13] is 0.00766 mg/kg and 0.0215 µmol/kg. Moreover, the “Ratio ED50” value in series [14] and in series [15] was 50 - 300 throughout.
Regarding `CC(=O)Oc1ccccc1C(=O)Nc1ncc([N+](=O)[O-])s1` [NITAZOXANIDE], in series [10], the “Ratio IC50” value is given as 2. Further, the selectivity ratio in series [9] is 115. In addition, in series [13], the 50% effective dose (ED50) was 1.1 mg/kg and 3.58 µmol/kg.
With `O=C(Cc1ccccc1Nc1c(Cl)cccc1Cl)Nc1ncc([N+](=O)[O-])s1`, the IC50 in series [1] is 0.147 µM; in series [2], 0.218 µM; in series [3] it was 1.89 µM; in series [4], 6.12 µM; in series [5], 15.7 µM. The figures for the “Ratio IC50” value in series [10], in series [16] and in [17] were 2, 38 and 8, respectively.
Take `CC1CS(=O)(=O)CCN1/N=C/c1ccc([N+](=O)[O-])o1` (stereo unspecified) [NIFURTIMOX]: the half-inhibitory concentration (IC50) in [4] is 3.1 µM; in [5] it was 7.45 µM.
As for `CC(C)(Oc1ccc(Cl)cc1)C(=O)Nc1ncc([N+](=O)[O-])s1`, the IC50 in series [1] worked out at 0.172 µM; in series [2] it was 0.032 µM; in [3], 3.43 µM; in series [4] it was 16.6 µM; in series [5] it was 12.2 µM. For the same compound, the results for the “Ratio IC50” value in [10], in [11] and in series [12] were 2, 2 and 10, respectively. Also, half-maximal cytotoxicity in [6] (CC50) was put at 22 µM. Moreover, the entries for the “Ratio CC50/IC50” value in [7] and in series [8] were 127 and 686, respectively. Also, in [9], the selectivity ratio is 6. Besides, the ED50 in series [13] was 0.00384 mg/kg and 0.0113 µmol/kg. Also, the “Ratio ED50” value in series [14] and in [15] was 50 - 300 in each case.
